Laboratory results: BindingDB's records for doi:10.1021/jm00020a029 (Merck Research Laboratories, 1995)
Where a SMILES comes first, the peptide text is derived from it. [ ]: non-standard residue; d: D form. Phe(F5) = N[C@@H](Cc1c(F)c(F)c(F)c(F)c1F)C(=O)O; Phe(4-Cl) = N[C@@H](Cc1ccc(Cl)cc1)C(=O)O; Phe(4-NH2) = Nc1ccc(C[C@H](N)C(=O)O)cc1; Phe(4-F) = N[C@@H](Cc1ccc(F)cc1)C(=O)O; hPhe = N[C@@H](CCc1ccccc1)C(=O)O; NMeA = CN[C@@H](C)C(=O)O; Aib = CC(C)(N)C(=O)O

Experiment: Evaluated for the activation of human thrombin receptor measured by platelet aggregation

Row | SMILES | EC50 [µM]
1 | CC(=O)N[C@@H](Cc1ccccc1)C(=O)N[C@@H](CC(C)C)C(=O)N[C@@H](CC(C)C)C(=O)N[C@@H](CCCNC(=N)N)C(N)=O [(S)-2-((S)-2-Acetylamino-3-phenyl-propionylamino)-4-methyl-pentanoic acid [(S)-1-((S)-1-carbamoyl-4-guanidino-butylcarbamoyl)-3-methyl-butyl]-amide] (Ac-FLLR-NH2) | 200
2 | CC(C)C[C@H](NC(=O)[C@H](CC(C)C)NC(=O)[C@H](CCc1ccccc1)NC(=O)[C@H](C)N)C(=O)N[C@@H](CCCNC(=N)N)C(N)=O [(S)-2-[(S)-2-((S)-2-Amino-propionylamino)-4-phenyl-butyrylamino]-4-methyl-pentanoic acid [(S)-1-((S)-1-carbamoyl-4-guanidino-butylcarbamoyl)-3-methyl-butyl]-amide] (H-A[hPhe]LLR-NH2) | > 800
3 | CC(C)C[C@H](NC(=O)[C@H](CC(C)C)NC(=O)[C@H](Cc1c(F)c(F)c(F)c(F)c1F)NC(=O)[C@H](C)N)C(=O)N[C@@H](CCCNC(=N)N)C(N)=O [(S)-2-[(S)-2-((S)-2-Amino-propionylamino)-3-pentafluorophenyl-propionylamino]-4-methyl-pentanoic acid [(S)-1-((S)-1-carbamoyl-4-guanidino-butylcarbamoyl)-3-methyl-butyl]-amide] (H-A[Phe(F5)]LLR-NH2) | 600
4 | CC(C)C[C@H](NC(=O)[C@H](CC(C)C)NC(=O)[C@H](Cc1ccccc1)NC(=O)[C@@H](N)Cc1ccc(O)cc1)C(=O)N[C@@H](CCCNC(=N)N)C(N)=O [(S)-2-{(S)-2-[(S)-2-Amino-3-(4-hydroxy-phenyl)-propionylamino]-3-phenyl-propionylamino}-4-methyl-pentanoic acid [(S)-1-((S)-1-carbamoyl-4-guanidino-butylcarbamoyl)-3-methyl-butyl]-amide] (H-YFLLR-NH2) | 400
5 | CC(C)C[C@H](NC(=O)[C@H](CC(C)C)NC(=O)[C@H](Cc1ccccc1)NC(=O)[C@@H](N)CCCNC(=N)N)C(=O)N[C@@H](CCCNC(=N)N)C(N)=O [(S)-2-Amino-5-guanidino-pentanoic acid ((S)-1-{(S)-1-[(S)-1-((S)-1-carbamoyl-4-guanidino-butylcarbamoyl)-3-methyl-butylcarbamoyl]-3-methyl-butylcarbamoyl}-2-phenyl-ethyl)-amide] (H-RFLLR-NH2) | > 1200
6 | CC(C)C[C@H](NC(=O)[C@H](CC(C)C)NC(=O)[C@H](Cc1ccccc1)NC(=O)[C@@H](N)Cc1cnc[nH]1)C(=O)N[C@@H](CCCNC(=N)N)C(N)=O [(S)-2-{(S)-2-[(S)-2-Amino-3-(3H-imidazol-4-yl)-propionylamino]-3-phenyl-propionylamino}-4-methyl-pentanoic acid [(S)-1-((S)-1-carbamoyl-4-guanidino-butylcarbamoyl)-3-methyl-butyl]-amide] (H-HFLLR-NH2) | 31
7 | CC(C)C[C@H](NC(=O)[C@H](CC(C)C)NC(=O)[C@H](Cc1ccc(N)cc1)NC(=O)[C@H](C)N)C(=O)N[C@@H](CCCNC(=N)N)C(N)=O [(S)-2-[(S)-3-(4-Amino-phenyl)-2-((S)-2-amino-propionylamino)-propionylamino]-4-methyl-pentanoic acid [(S)-1-((S)-1-carbamoyl-4-guanidino-butylcarbamoyl)-3-methyl-butyl]-amide] (H-A[Phe(4-NH2)]LLR-NH2) | 235
8 | CC(C)C[C@H](NC(=O)[C@H](CC(C)C)NC(=O)[C@H](Cc1ccccc1)NC(=O)[C@@H](N)CC(=O)O)C(=O)N[C@@H](CCCNC(=N)N)C(N)=O [(S)-3-Amino-N-((S)-1-{(S)-1-[(S)-1-((S)-1-carbamoyl-4-guanidino-butylcarbamoyl)-3-methyl-butylcarbamoyl]-3-methyl-butylcarbamoyl}-2-phenyl-ethyl)-succinamic acid] (H-DFLLR-NH2) | > 800
9 | CC(C)C[C@H](NC(=O)[C@H](CC(C)C)NC(=O)[C@@H](N)Cc1ccccc1)C(=O)N[C@@H](CCCNC(=N)N)C(N)=O [(S)-2-((S)-2-Amino-3-phenyl-propionylamino)-4-methyl-pentanoic acid [(S)-1-((S)-1-carbamoyl-4-guanidino-butylcarbamoyl)-3-methyl-butyl]-amide] (H-FLLR-NH2) | > 800
10 | CC(C)C[C@H](NC(=O)[C@H](CC(C)C)NC(=O)[C@H](Cc1ccccc1)NC(=O)C(C)(C)N)C(=O)N[C@@H](CCCNC(=N)N)C(N)=O [(S)-2-[(S)-2-(2-Amino-2-methyl-propionylamino)-3-phenyl-propionylamino]-4-methyl-pentanoic acid [(S)-1-((S)-1-carbamoyl-4-guanidino-butylcarbamoyl)-3-methyl-butyl]-amide] (H-[Aib]FLLR-NH2) | 415
11 | CN[C@@H](C)C(=O)N[C@@H](Cc1ccccc1)C(=O)N[C@@H](CC(C)C)C(=O)N[C@@H](CC(C)C)C(=O)N[C@@H](CCCNC(=N)N)C(N)=O [(S)-4-Methyl-2-[(S)-2-((S)-2-methylamino-propionylamino)-3-phenyl-propionylamino]-pentanoic acid [(S)-1-((S)-1-carbamoyl-4-guanidino-butylcarbamoyl)-3-methyl-butyl]-amide] (H-[NMeA]FLLR-NH2) | 600

These reach a lower EC50. Values come first.

Row | EC50 [µM] | SMILES
12 | 3.3 | CC(C)C[C@H](NC(=O)[C@H](CC(C)C)NC(=O)[C@H](Cc1ccccc1)NC(=O)[C@@H](N)CO)C(=O)N[C@@H](CCCNC(=N)N)C(=O)N[C@@H](CC(N)=O)C(=O)N1CCC[C@H]1C(=O)N[C@@H](CC(N)=O)C(=O)N[C@@H](CC(=O)O)C(N)=O [SFLLRDPQD-NH2] (H-SFLLRNPND-NH2)
13 | 0.7 | CC(C)C[C@H](NC(=O)[C@H](CC(C)C)NC(=O)[C@H](Cc1ccc(Cl)cc1)NC(=O)[C@H](C)N)C(=O)N[C@@H](CCCNC(=N)N)C(N)=O [(S)-2-[(S)-2-((S)-2-Amino-propionylamino)-3-(4-chloro-phenyl)-propionylamino]-4-methyl-pentanoic acid [(S)-1-((S)-1-carbamoyl-4-guanidino-butylcarbamoyl)-3-methyl-butyl]-amide] (H-A[Phe(4-Cl)]LLR-NH2)
14 | 1.2 | CC(C)C[C@H](NC(=O)[C@H](CC(C)C)NC(=O)[C@H](Cc1ccccc1)NC(=O)CN)C(=O)N[C@@H](CCCNC(=N)N)C(N)=O [(S)-2-[(S)-2-(2-Amino-acetylamino)-3-phenyl-propionylamino]-4-methyl-pentanoic acid [(S)-1-((S)-1-carbamoyl-4-guanidino-butylcarbamoyl)-3-methyl-butyl]-amide] (H-GFLLR-NH2)
15 | 0.8 | CC(C)C[C@H](NC(=O)[C@H](CC(C)C)NC(=O)[C@H](Cc1ccccc1)NC(=O)[C@H](C)N)C(=O)N[C@@H](CCCNC(=N)N)C(N)=O [(S)-2-[(S)-2-((S)-2-Amino-propionylamino)-3-phenyl-propionylamino]-4-methyl-pentanoic acid [(S)-1-((S)-1-carbamoyl-4-guanidino-butylcarbamoyl)-3-methyl-butyl]-amide] (H-AFLLR-NH2)
16 | 0.2 | CC(C)C[C@H](NC(=O)[C@H](CC(C)C)NC(=O)[C@H](Cc1ccc(F)cc1)NC(=O)[C@H](C)N)C(=O)N[C@@H](CCCNC(=N)N)C(N)=O [(S)-2-[(S)-2-((S)-2-Amino-propionylamino)-3-(4-fluoro-phenyl)-propionylamino]-4-methyl-pentanoic acid [(S)-1-((S)-1-carbamoyl-4-guanidino-butylcarbamoyl)-3-methyl-butyl]-amide] (H-A[Phe(4-F)]LLR-NH2)
